Test results published in article PMC6985185 (Breast cancer research and treatment, 2019).
Where “and” joins values, the source holds several entries; their conditions need not be identical. Equal entries are not always repeated.

Key:
breast cancer [1] = conditions: 250 mg monthly; patients that had already progressed during AI treatment; cited from earlier work
[2] = system: HCC1428 breast cancer xenograft tumors; assay: HCC1428 Study: growth of estrogen dependent xenograft tumors; assay type: in vivo, Nu:J mice; conditions: 25 mg/kg sc qw, 4 weeks; ovariectomized mice receiving oral estradiol
[3] = system: TamR (tamoxifen resistant) xenograft tumors; assay: TamR Study 1: growth of tamoxifen-resistant xenograft tumors under fulvestrant; assay type: in vivo, Nu:J mice
estrogen receptor (ER) [4] = target: T1, estrogen receptor (ER) (Homo sapiens, UniProt P03372); assay: Immunoblot of ER levels in HCC1428 tumors; conditions: 25 mg/kg sc qw, 4 weeks
T1 sequence (P03372 1-595): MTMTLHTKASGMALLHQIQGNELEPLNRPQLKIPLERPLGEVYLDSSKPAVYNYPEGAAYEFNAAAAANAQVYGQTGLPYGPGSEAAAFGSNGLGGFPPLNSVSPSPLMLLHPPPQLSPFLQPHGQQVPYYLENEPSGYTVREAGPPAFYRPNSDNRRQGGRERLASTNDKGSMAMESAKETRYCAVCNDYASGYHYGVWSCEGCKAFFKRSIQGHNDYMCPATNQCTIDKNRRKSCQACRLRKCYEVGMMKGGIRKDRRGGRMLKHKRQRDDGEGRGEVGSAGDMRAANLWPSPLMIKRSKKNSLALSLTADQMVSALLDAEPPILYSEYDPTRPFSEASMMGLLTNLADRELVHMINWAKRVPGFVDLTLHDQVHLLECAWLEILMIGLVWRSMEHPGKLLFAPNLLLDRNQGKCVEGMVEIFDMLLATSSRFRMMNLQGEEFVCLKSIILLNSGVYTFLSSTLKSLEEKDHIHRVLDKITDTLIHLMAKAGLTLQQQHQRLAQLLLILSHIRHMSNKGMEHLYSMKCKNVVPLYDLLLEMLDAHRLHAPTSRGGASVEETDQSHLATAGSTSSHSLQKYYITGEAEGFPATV

estrogen receptor (ER) [5] = target: T1, estrogen receptor (ER); assay: Immunoblot of ER levels in TamR tumors, Study 1; conditions: 28 days of treatment
ER = conditions: months of treatment with originally approved 250 mg/month regimen; cited from earlier work
[6] = current clinical protocol; cited from earlier work
uterus = assay: Uterine wet weight in LTED tumor bearing mice; assay type: in vivo, Nu:J mice; conditions: ovariectomized LTED tumor bearing mice, after 4 weeks of treatment at the LTED study doses
breast cancer [7] = conditions: 500 vs 250 mg/month, loading regimen 500 mg on d1, d14, d29; cited from earlier work
[8] = Circulating plasma levels of fulvestrant at euthanasia, TamR Study 1 (LC/MS/MS); assay type: in vivo, Nu:J mice; conditions: female, Nu/J, mouse, subcutaneous
[9] = system: ER target genes AGR2, AGR3, and KRT13; assay: RT-qPCR of tamoxifen responsive ER target genes in TamR tumors; assay type: in vivo, Nu:J mice
[10] = Circulating plasma levels of fulvestrant after a single injection (LC/MS/MS); assay type: in vivo, Nu:J mice; conditions: single injection of 25 or 200 mg/kg; plasma collected 1, 3, 5, or 7 days after administration
[11] = all doses administered (25-200 mg/kg)

C[C@]12CC[C@@H]3c4ccc(O)cc4C[C@@H](CCCCCCCCC[S+]([O-])CCCC(F)(F)C(F)(F)F)[C@H]3[C@@H]1CC[C@@H]2O (stereo partly shown) [Fulvestrant, fulvestrant]
Response rate in the EFFECT trial (breast cancer [1]): 7.4%
Effect on HCC1428 xenograft tumor growth [2]: Tumor stasis
Inhibition of TamR tumor growth vs vehicle control ([3]; 4 weekly injections of 25, 50, 100, or 200 mg/kg (all doses), no significant differences between doses): significant inhibition of tumor growth
% tumor growth inhibition of TamR tumors ([3]; fulvestrant 25 mg/kg sc weekly, day 0 of treatment): −1%
% tumor growth inhibition of TamR tumors ([3]; fulvestrant 25 mg/kg sc weekly, day 2 of treatment): 25%
% tumor growth inhibition of TamR tumors ([3]; fulvestrant 25 mg/kg sc weekly, day 4 of treatment): 20%
% tumor growth inhibition of TamR tumors ([3]; fulvestrant 25 mg/kg sc weekly, day 7 of treatment): 21%
% tumor growth inhibition of TamR tumors ([3]; fulvestrant 25 mg/kg sc weekly, day 9 of treatment): 18%
% tumor growth inhibition of TamR tumors ([3]; fulvestrant 25 mg/kg sc weekly, day 11 of treatment): 24%
% tumor growth inhibition of TamR tumors ([3]; fulvestrant 25 mg/kg sc weekly, day 14 of treatment): 33%
% tumor growth inhibition of TamR tumors ([3]; fulvestrant 25 mg/kg sc weekly, day 16 of treatment): 29%
% tumor growth inhibition of TamR tumors ([3]; fulvestrant 25 mg/kg sc weekly, day 18 of treatment): 39%
% tumor growth inhibition of TamR tumors ([3]; fulvestrant 25 mg/kg sc weekly, day 21 of treatment): 44%
% tumor growth inhibition of TamR tumors ([3]; fulvestrant 25 mg/kg sc weekly, day 23 of treatment): 45%
% tumor growth inhibition of TamR tumors ([3]; fulvestrant 25 mg/kg sc weekly, day 25 of treatment): 47%
% tumor growth inhibition of TamR tumors ([3]; fulvestrant 25 mg/kg sc weekly, day 28 of treatment): 47%
% tumor growth inhibition of TamR tumors ([3]; fulvestrant 50 mg/kg sc weekly, day 0 of treatment): −1%
% tumor growth inhibition of TamR tumors ([3]; fulvestrant 50 mg/kg sc weekly, day 2 of treatment): 24%
% tumor growth inhibition of TamR tumors ([3]; fulvestrant 50 mg/kg sc weekly, day 4 of treatment): 20%
% tumor growth inhibition of TamR tumors ([3]; fulvestrant 50 mg/kg sc weekly, day 7 of treatment): 26%
% tumor growth inhibition of TamR tumors ([3]; fulvestrant 50 mg/kg sc weekly, day 9 of treatment): 28%
% tumor growth inhibition of TamR tumors ([3]; fulvestrant 50 mg/kg sc weekly, day 11 of treatment): 31%
% tumor growth inhibition of TamR tumors ([3]; fulvestrant 50 mg/kg sc weekly, day 14 of treatment): 37%
% tumor growth inhibition of TamR tumors ([3]; fulvestrant 50 mg/kg sc weekly, day 16 of treatment): 40%
% tumor growth inhibition of TamR tumors ([3]; fulvestrant 50 mg/kg sc weekly, day 18 of treatment): 44%
% tumor growth inhibition of TamR tumors ([3]; fulvestrant 50 mg/kg sc weekly, day 21 of treatment): 51%
% tumor growth inhibition of TamR tumors ([3]; fulvestrant 50 mg/kg sc weekly, day 23 of treatment): 58%
% tumor growth inhibition of TamR tumors ([3]; fulvestrant 50 mg/kg sc weekly, day 25 of treatment): 59%
% tumor growth inhibition of TamR tumors ([3]; fulvestrant 50 mg/kg sc weekly, day 28 of treatment): 62%
% tumor growth inhibition of TamR tumors ([3]; fulvestrant 100 mg/kg sc weekly, day 0 of treatment): −3%
% tumor growth inhibition of TamR tumors ([3]; fulvestrant 100 mg/kg sc weekly, day 2 of treatment): 23%
% tumor growth inhibition of TamR tumors ([3]; fulvestrant 100 mg/kg sc weekly, day 4 of treatment): 20%
% tumor growth inhibition of TamR tumors ([3]; fulvestrant 100 mg/kg sc weekly, day 7 of treatment): 27%
% tumor growth inhibition of TamR tumors ([3]; fulvestrant 100 mg/kg sc weekly, day 9 of treatment): 16%
% tumor growth inhibition of TamR tumors ([3]; fulvestrant 100 mg/kg sc weekly, day 11 of treatment): 32%
% tumor growth inhibition of TamR tumors ([3]; fulvestrant 100 mg/kg sc weekly, day 14 of treatment): 44%
% tumor growth inhibition of TamR tumors ([3]; fulvestrant 100 mg/kg sc weekly, day 16 of treatment): 36%
% tumor growth inhibition of TamR tumors ([3]; fulvestrant 100 mg/kg sc weekly, day 18 of treatment): 50%
% tumor growth inhibition of TamR tumors ([3]; fulvestrant 100 mg/kg sc weekly, day 21 of treatment): 46%
% tumor growth inhibition of TamR tumors ([3]; fulvestrant 100 mg/kg sc weekly, day 23 of treatment): 53%
% tumor growth inhibition of TamR tumors ([3]; fulvestrant 100 mg/kg sc weekly, day 25 of treatment): 49%
% tumor growth inhibition of TamR tumors ([3]; fulvestrant 100 mg/kg sc weekly, day 28 of treatment): 58%
% tumor growth inhibition of TamR tumors ([3]; fulvestrant 200 mg/kg sc weekly, day 0 of treatment): 2%
% tumor growth inhibition of TamR tumors ([3]; fulvestrant 200 mg/kg sc weekly, day 2 of treatment): 28%
% tumor growth inhibition of TamR tumors ([3]; fulvestrant 200 mg/kg sc weekly, day 4 of treatment): 24%
% tumor growth inhibition of TamR tumors ([3]; fulvestrant 200 mg/kg sc weekly, day 7 of treatment): 24%
% tumor growth inhibition of TamR tumors ([3]; fulvestrant 200 mg/kg sc weekly, day 9 of treatment): 25%
% tumor growth inhibition of TamR tumors ([3]; fulvestrant 200 mg/kg sc weekly, day 11 of treatment): 39%
% tumor growth inhibition of TamR tumors ([3]; fulvestrant 200 mg/kg sc weekly, day 14 of treatment): 47%
% tumor growth inhibition of TamR tumors ([3]; fulvestrant 200 mg/kg sc weekly, day 16 of treatment): 48%
% tumor growth inhibition of TamR tumors ([3]; fulvestrant 200 mg/kg sc weekly, day 18 of treatment): 53%
% tumor growth inhibition of TamR tumors ([3]; fulvestrant 200 mg/kg sc weekly, day 21 of treatment): 61%
% tumor growth inhibition of TamR tumors ([3]; fulvestrant 200 mg/kg sc weekly, day 23 of treatment): 66%
% tumor growth inhibition of TamR tumors ([3]; fulvestrant 200 mg/kg sc weekly, day 25 of treatment): 67%
% tumor growth inhibition of TamR tumors ([3]; fulvestrant 200 mg/kg sc weekly, day 28 of treatment): 74%
ER expression in HCC1428 tumors (western blotting) (estrogen receptor (ER) [4]): modest but significant downregulation of ER expression
ER downregulation in TamR tumors (immunoblot) (estrogen receptor (ER) [5]; 25 mg/kg dose): did not result in significant ER downregulation
ER downregulation in TamR tumors (immunoblot) (estrogen receptor (ER) [5]; 50, 100, and 200 mg/kg doses): Significant (p < 0.001) downregulation of ER
Patients exhibiting intratumoral [(18)F]fluoroestradiol (FES) binding during follow up PET scans (ER): 30%
Cmax observed per current protocol in patients [6]: ~0.028 µg/mL
Uterine wet weight (measure of uterine stimulation) (uterus): non-significant trend toward reduced uterine weight
Clinical response to higher dose with loading regimen (breast cancer [7]): improved response rate and increased time to progression
concentration at 7 days after final dose ([8]; 25 mg/kg): 34.6 ng/mL and 57 nM
concentration at 7 days after final dose ([8]; 50 mg/kg): 64.9 ng/mL and 107 nM
concentration at 7 days after final dose ([8]; 100 mg/kg): 95.6 ng/mL and 157 nM
concentration at 7 days after final dose ([8]; 200 mg/kg): 207 ng/mL and 340 nM
mRNA expression of anterior gradient protein 3 (AGR3) in TamR tumors [9, 11]: dramatic downregulation
mRNA expression of keratin 13 (KRT13) in TamR tumors [9, 11]: dramatic downregulation
mRNA expression of AGR2 in TamR tumors ([9]; only for doses that resulted in quantitative downregulation of ER protein): modest reduction in AGR2 expression
Time of highest plasma level after single injection [10]: highest levels detected one day after administration
